The values below come from patent US9809583B2 (priority 2014, dated 2017).

Counter-ions that a name gives are not always drawn.

Sequence of androgen receptor (hAR) (P10275 whole entry): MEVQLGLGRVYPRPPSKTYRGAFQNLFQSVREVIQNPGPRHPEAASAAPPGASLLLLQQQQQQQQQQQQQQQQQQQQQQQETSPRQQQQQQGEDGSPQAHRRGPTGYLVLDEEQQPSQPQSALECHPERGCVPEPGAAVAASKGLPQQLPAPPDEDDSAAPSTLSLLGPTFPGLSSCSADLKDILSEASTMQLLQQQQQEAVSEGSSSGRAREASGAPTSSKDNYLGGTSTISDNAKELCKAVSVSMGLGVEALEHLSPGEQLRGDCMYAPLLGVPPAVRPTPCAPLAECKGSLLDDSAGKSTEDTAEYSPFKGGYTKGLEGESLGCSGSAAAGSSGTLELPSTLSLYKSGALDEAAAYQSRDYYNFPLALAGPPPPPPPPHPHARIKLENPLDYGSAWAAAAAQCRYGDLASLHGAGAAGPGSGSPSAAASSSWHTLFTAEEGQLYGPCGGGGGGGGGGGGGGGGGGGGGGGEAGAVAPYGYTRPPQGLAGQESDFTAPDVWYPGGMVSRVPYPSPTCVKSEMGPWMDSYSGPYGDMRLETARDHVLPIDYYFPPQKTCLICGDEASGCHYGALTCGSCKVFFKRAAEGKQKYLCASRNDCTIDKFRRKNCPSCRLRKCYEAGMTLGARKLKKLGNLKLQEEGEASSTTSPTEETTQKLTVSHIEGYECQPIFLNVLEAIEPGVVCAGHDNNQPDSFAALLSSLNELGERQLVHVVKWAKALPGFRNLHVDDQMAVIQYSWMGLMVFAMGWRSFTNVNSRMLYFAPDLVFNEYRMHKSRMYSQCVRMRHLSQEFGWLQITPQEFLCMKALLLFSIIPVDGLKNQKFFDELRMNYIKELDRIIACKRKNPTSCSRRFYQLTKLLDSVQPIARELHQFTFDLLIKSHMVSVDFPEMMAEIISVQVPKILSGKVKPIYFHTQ

For one assay, the target named is androgen receptor (hAR) (Homo sapiens (Human), UniProt P10275). Description: Test of transcriptional activity (hAR / ARE-Luc dual-luciferase assay in CHO cells). Type of assay: cell-based. As to conditions: CHO cells with hAR and ARE-Luc, 24 hours; 10 nM DHT = 100%; read-out: EC50 [nM] (mean ± SE). Here is the method:
In order to examine the transcriptional activity of the agonists of the present invention, the following in-vitro experiment was performed. CHO (Chinese hamster ovary) cell line (ATCC, #CCL-61) was seeded in a 96-well plate at a density of 1.5×10^4 cells/well, and cultured for 24 hours. Then, a plasmid hAR and plasmid ARE-Luc-mixed medium was added thereto. The transfected cell line was treated with 0.1˜10,000 nM of SARM derivatives, and then allowed to react for 24 hours.
For orientation: EC50 means the concentration needed to bring the measured effect to its halfway point. Regarding `Cc1cc(N2C[C@@H](COc3ccncc3)O[C@@H]2C(F)(F)F)ccc1[N+](=O)[O-]` [Example 69, (2R,5S)-3-(3-methyl-4-nitrophenyl)-5-((pyridin-4-yloxy)methyl)-2-(trifluoromethyl)oxazolidine], the EC50 was 1.54 nM. Same read-out and setting: the figure for `Cc1cc(N2C[C@@H](COc3ccc(/C=N/O)cc3)O[C@@H]2C(F)(F)F)ccc1[N+](=O)[O-]` [Example 70, (E)-4-(((2R,5S)-3-(3-methyl-4-nitrophenyl)-2-(trifluoromethyl)oxazolidin-5-yl)methoxy)benzaldehyde oxime] is 0.62 nM. With `N#Cc1ccc(OC[C@@H]2CN(c3ccc([N+](=O)[O-])c(C(F)(F)F)c3)[C@H](C(F)(F)F)O2)cc1` [Example 81, 4-(((2S,5S)-3-(4-nitro-3-(trifluoromethyl)phenyl)-2-(trifluoromethyl)oxazolidin-5-yl)methoxy)benzonitrile], the EC50 worked out at 59.5 nM. Still for that read-out and setting: the figure for `Cc1cc(N2C[C@@H](COc3ccc(C#N)cc3)O[C@H]2C(F)(F)F)ccc1[N+](=O)[O-]` [Example 82, 4-(((2S,5S)-3-(3-methyl-4-nitrophenyl)-2-(trifluoromethyl)oxazolidin-5-yl)methoxy)benzonitrile] is 21.1 nM; for `O=[N+]([O-])c1ccc(N2C[C@@H](COc3ccc(/C=N/O)cc3)O[C@@H]2C(F)(F)F)cc1C(F)(F)F` [Example 87, (E)-4-(((2R,5S)-3-(4-nitro-3-(trifluoromethyl)phenyl)-2-(trifluoromethyl)oxazolidin-5-yl)methoxy)benzaldehyde oxime] it is 9.22 nM.

The assay is the same for the next values; noted with them: EC50 [nM] (mean ± SE), CHO cells with hAR and ARE-Luc, 24 hours; 10 nM DHT = 100%.
`N#Cc1ccc(N2C[C@@H](COc3ccc(CO)cc3)O[C@@H]2C(F)(F)F)cc1C(F)(F)F` [Example 67, 4-((2R,5S)-5-((4-(hydroxymethyl)phenoxy)methyl)-2-(trifluoromethyl)oxazolidin-3-yl)-2-(trifluoromethyl)benzonitrile] came in with a half-maximal effective concentration (EC50) of 3.93 nM. The same measure, in the same setting: the figure for `N#Cc1ccc(N2C[C@@H](COc3ccnc(Cl)c3)O[C@@H]2C(F)(F)F)cc1C(F)(F)F` [Example 68, 4-((2R,5S)-5-(((2-chloropyridin-4-yl)oxy)methyl)-2-(trifluoromethyl)oxazolidin-3-yl)-2-(trifluoromethyl)benzonitrile] is 6.06 nM. Still for that read-out and setting: the result for `N#Cc1ccc(OC[C@@H]2CN(c3ccc(C#N)c(Cl)c3)[C@@H](C(F)(F)F)O2)cc1` [Example 71, 2-chloro-4-((2R,5S)-5-((4-cyanophenoxy)methyl)-2-(trifluoromethyl)oxazolidin-3-yl)benzonitrile] reads 1.57 nM; that for `N#Cc1ccc(N2C[C@@H](COc3ccncc3)O[C@@H]2C(F)(F)F)cc1Cl` [Example 72, 2-chloro-4-((2R,5S)-5-((pyridin-4-yloxy)methyl)-2-(trifluoromethyl)oxazolidin-3-yl)benzonitrile], 1.03 nM. As to `N#Cc1ccc(OC[C@@H]2CN(c3ccc(C#N)c(Cl)c3)[C@@H](C(F)(F)F)O2)cn1` [Example 73, 5-(((2R,5S)-3-(3-chloro-4-cyanophenyl)-2-(trifluoromethyl)oxazolidin-5-yl)methoxy)picolinonitrile], the EC50 came to 0.991 nM. `N#Cc1ccc(N2C[C@@H](COc3ccc(/C=N/O)cc3)O[C@@H]2C(F)(F)F)cc1Cl` [Example 74, 2-chloro-4-((2R,5S)-5-((4-((E)-(hydroxyimino)methyl)phenoxy)methyl)-2-(trifluoromethyl)oxazolidin-3-yl)benzonitrile] gave a concentration for a half-maximal effect (EC50) of 0.658 nM. `Cc1c(N2C[C@@H](COc3ccc(C#N)cc3)O[C@@H]2C(F)(F)F)ccc(C#N)c1Cl` [Example 75, 2-chloro-4-((2R,5S)-5-((4-cyanophenoxy)methyl)-2-(trifluoromethyl)oxazolidin-3-yl)-3-methylbenzonitrile]: the EC50 was 37 nM.

Take `Cc1c(N2C[C@@H](COc3ccncc3)O[C@@H]2C(F)(F)F)ccc(C#N)c1Cl` [Example 76, 2-chloro-3-methyl-4-((2R,5S)-5-((pyridin-4-yloxy)methyl)-2-(trifluoromethyl)oxazolidin-3-yl)benzonitrile]: the 50% effective concentration (EC50) came to 21.8 nM. On the same count and under the same terms, the result for `Cc1c(N2C[C@@H](COc3ccc(C#N)nc3)O[C@@H]2C(F)(F)F)ccc(C#N)c1Cl` [Example 77, 5-(((2R,5S)-3-(3-chloro-4-cyano-2-methylphenyl)-2-(trifluoromethyl)oxazolidin-5-yl)methoxy)picolinonitrile] reads 10.6 nM.

In turn, `Cc1c(N2C[C@@H](COc3ccc(/C=N/O)cc3)O[C@@H]2C(F)(F)F)ccc(C#N)c1Cl` [Example 78, 2-chloro-4-((2R,5S)-5-((4-((E)-(hydroxyimino)methyl)phenoxy)methyl)-2-(trifluoromethyl)oxazolidin-3-yl)-3-methylbenzonitrile] had an EC50 of 4.91 nM. `N#Cc1ccc(N2C[C@@H](COc3ccncc3)O[C@H]2C(F)(F)F)cc1C(F)(F)F` [Example 80, 4-((2S,5S)-5-((pyridin-4-yloxy)methyl)-2-(trifluoromethyl)oxazolidin-3-yl)-2-(trifluoromethyl)benzonitrile] showed an EC50 of 34 nM. Consider `N#Cc1ccc(OC[C@@H]2CN(c3ccc(C#N)c(Cl)c3)[C@H](C(F)(F)F)O2)cc1` [Example 83, 2-chloro-4-((2S,5S)-5-((4-cyanophenoxy)methyl)-2-(trifluoromethyl)oxazolidin-3-yl)benzonitrile], for which the midpoint of the response, the EC50, lay at 29.6 nM.

`Cc1c(N2C[C@@H](COc3ccc(C#N)cc3)O[C@H]2C(F)(F)F)ccc(C#N)c1Cl` [Example 84, 2-chloro-4-((2S,5S)-5-((4-cyanophenoxy)methyl)-2-(trifluoromethyl)oxazolidin-3-yl)-3-methylbenzonitrile] yielded an EC50 of 1140 nM. `CO/N=C/c1ccc(OC[C@@H]2CN(c3ccc(C#N)c(C(F)(F)F)c3)[C@@H](C(F)(F)F)O2)cc1` [Example 85, 4-((2R,5S)-5-((4-((E)-(methoxyimino)methyl)phenoxy)methyl)-2-(trifluoromethyl)oxazolidin-3-yl)-2-(trifluoromethyl)benzonitrile] had an EC50 of 9.84 nM. On the same count and under the same terms, the result for `CC(C)(C)OC(=O)NCc1ccc(OC[C@@H]2CN(c3ccc(C#N)c(C(F)(F)F)c3)[C@@H](C(F)(F)F)O2)cc1` [Example 88] reads 926 nM. Same read-out and setting: the result for `N#Cc1ccc(N2C[C@@H](COc3ccc(CN)cc3)O[C@@H]2C(F)(F)F)cc1C(F)(F)F` [Example 89, 4-((2R,5S)-5-((4-(aminomethyl)phenoxy)methyl)-2-(trifluoromethyl)oxazolidin-3-yl)-2-(trifluoromethyl)benzonitrile hydrochloride] reads 34.2 nM. Consider `N#Cc1ccc(N2C[C@@H](COc3ccc(NC(=O)CO)cc3)O[C@@H]2C(F)(F)F)cc1C(F)(F)F` [Example 94, N-(4-(((2R,5S)-3-(4-cyano-3-(trifluoromethyl)phenyl)-2-(trifluoromethyl)oxazolidin-5-yl)methoxy)phenyl)-2-hydroxyacetamide], for which the EC50 came to 4.12 nM. With `N#CCC(=O)Nc1ccc(OC[C@@H]2CN(c3ccc(C#N)c(C(F)(F)F)c3)[C@@H](C(F)(F)F)O2)cc1` [Example 95, 2-cyano-N-(4-(((2R,5S)-3-(4-cyano-3-(trifluoromethyl)phenyl)-2-(trifluoromethyl)oxazolidin-5-yl)methoxy)phenyl)acetamide], the EC50 was found to be 2.81 nM. Turning to `N#Cc1ccc(N2C[C@@H](COc3ccc(/C=N/O)cc3[N+](=O)[O-])O[C@@H]2C(F)(F)F)cc1C(F)(F)F` [Example 98, 4-((2R,5S)-5-((4-((E)-(hydroxyimino)methyl)-2-nitrophenoxy)methyl)-2-(trifluoromethyl)oxazolidin-3-yl)-2-(trifluoromethyl)benzonitrile], the EC50 came out at 2.91 nM. Same read-out and setting: the figure for `N#Cc1ccc(OC[C@@H]2CN(c3ccc(C#N)c(C(F)(F)F)c3)[C@@H](C(F)(F)F)O2)c([N+](=O)[O-])c1` [Example 99, 4-((2R,5S)-5-((4-cyano-2-nitrophenoxy)methyl)-2-(trifluoromethyl)oxazolidin-3-yl)-2-(trifluoromethyl)benzonitrile] is 97.3 nM; for `N#Cc1ccc(N2C[C@@H](C(=O)Nc3ccc([N+](=O)[O-])cc3F)O[C@@H]2C(F)(F)F)cc1C(F)(F)F` [Example 104] it is 24.9 nM.

Regarding `N#Cc1ccc(N2C[C@@H](C(=O)Nc3ccc(N)cc3F)O[C@@H]2C(F)(F)F)cc1C(F)(F)F` [Example 105, (2R,5S)-N-(4-amino-2-fluorophenyl)-3-(4-cyano-3-(trifluoromethyl)phenyl)-2-(trifluoromethyl)oxazolidine-5-carboxamide], a half-maximal effect (EC50) was put at 49.9 nM. In turn, `CC(=O)Nc1ccc(NC(=O)[C@@H]2CN(c3ccc(C#N)c(C(F)(F)F)c3)[C@@H](C(F)(F)F)O2)c(F)c1` [Example 106, (2R,5S)-N-(4-acetamido-2-fluorophenyl)-3-(4-cyano-3-(trifluoromethyl)phenyl)-2-(trifluoromethyl)oxazolidine-5-carboxamide] yielded a half-maximal effective concentration (EC50) of 154 nM. `N#Cc1ccc(N2C[C@@H](C(=O)Nc3ccncc3)O[C@@H]2C(F)(F)F)cc1C(F)(F)F` [Example 107, (2R,5S)-3-(4-cyano-3-(trifluoromethyl)phenyl)-N-(pyridin-4-yl)-2-(trifluoromethyl)oxazolidine-5-carboxamide] showed an EC50 of 7.18 nM.

As for `N#Cc1ccc(NC(=O)[C@@H]2CN(c3ccc(C#N)c(C(F)(F)F)c3)[C@@H](C(F)(F)F)O2)cn1` [Example 108, (2R,5S)-3-(4-cyano-3-(trifluoromethyl)phenyl)-N-(6-cyanopyridin-3-yl)-2-(trifluoromethyl)oxazolidine-5-carboxamide], the EC50 was determined as 17 nM. The compound `CC(=O)Nc1ccc(NC(=O)[C@@H]2CN(c3ccc(C#N)c(C(F)(F)F)c3)[C@@H](C(F)(F)F)O2)cc1` [Example 109, (2R,5S)-N-(4-acetamidophenyl)-3-(4-cyano-3-(trifluoromethyl)phenyl)-2-(trifluoromethyl)oxazolidine-5-carboxamide] registered an EC50 of 5.09 nM.
